# Laboratory results: ChEMBL document CHEMBL1201862, “PubChem BioAssay data set” (2004)
# The source made the active and inactive calls.
# How the values were obtained:
# [1] = toxicity toward HepG2 liver cells – cell-based, plate reader, cherry-pick, antagonist series, cytotoxicity control, dose response (AID 743416); assay type: functional
# [2] = blockers of bursicon-stimulated LGR2 cAMP reporter – cell-based, HEK293, CRE-luciferase reporter, cherry pick, set 2, dose response (AID 743343); assay type: functional;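 note: transfected cells were stimulated with diluted bursicon conditioned medium after compound addition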
# [3] = A549 cell cytotoxicity, dose response, cytotoxicity control, plate reader, cherry-pick, antagonist series (AID 743412); assay type: functional, cell-based
# [4] = blockade of melanocortin 4 receptor signaling – cell-based, plate reader, cherry pick, counter-screen for LGR2 antagonist project, dose response (AID 743444); assay type: functional;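 note: transfected HEK 293 cells stimulated with alpha-MSH peptide; potency of inhibitors of the alpha-MSH evoked signal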
# [5] = viability loss in HEK293 cells – cell-based, plate reader, cherry-picked samples, cytotoxicity control, dose response (AID 743446); assay type: functional
# [6] = target: Tyrosyl-DNA phosphodiesterase 2 (Homo sapiens, UniProt O95551); test: potency against TDP2 phosphodiesterase activity – biochemical, epi absorbance, IC50, dose response (AID 743297)
# Protein RecA = target: T1, Protein RecA (Mycobacterium tuberculosis, UniProt P9WHJ3); test: Fluorescence Cell-Free Homogeneous Dose Retest to Identify Inhibitors of RecA-Intein Splicing Activity. [Related pubchem assays (depositor defined):AID2097, AID2223, AID489010, AID492950]; assay type: functional
# T1 sequence (P9WHJ3 whole entry): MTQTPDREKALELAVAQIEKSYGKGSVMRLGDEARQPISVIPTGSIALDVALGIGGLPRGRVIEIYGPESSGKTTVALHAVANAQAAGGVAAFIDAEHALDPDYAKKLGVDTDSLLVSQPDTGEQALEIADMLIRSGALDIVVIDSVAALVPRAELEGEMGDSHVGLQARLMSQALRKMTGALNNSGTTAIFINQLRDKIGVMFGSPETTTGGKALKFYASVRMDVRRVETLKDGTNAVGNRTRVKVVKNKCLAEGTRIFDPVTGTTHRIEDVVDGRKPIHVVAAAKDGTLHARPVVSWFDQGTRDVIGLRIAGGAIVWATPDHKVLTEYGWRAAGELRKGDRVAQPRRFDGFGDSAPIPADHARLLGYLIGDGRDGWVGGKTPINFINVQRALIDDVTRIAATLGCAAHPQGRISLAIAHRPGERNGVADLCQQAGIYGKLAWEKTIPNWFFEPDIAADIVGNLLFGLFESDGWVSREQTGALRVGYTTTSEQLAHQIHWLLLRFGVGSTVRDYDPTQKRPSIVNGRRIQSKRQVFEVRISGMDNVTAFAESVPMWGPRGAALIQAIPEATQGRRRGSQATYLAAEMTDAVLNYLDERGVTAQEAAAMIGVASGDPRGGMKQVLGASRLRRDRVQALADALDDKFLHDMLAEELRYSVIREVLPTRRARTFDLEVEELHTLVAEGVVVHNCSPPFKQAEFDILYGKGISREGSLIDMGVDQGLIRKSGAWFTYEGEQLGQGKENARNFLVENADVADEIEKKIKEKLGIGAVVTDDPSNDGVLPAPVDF
# [7] = target: T2, Replicative DNA helicase DnaB (Mycobacterium tuberculosis, UniProt P9WMR3); test: DnaB intein splicing inhibitors, dose response, biochemical, cell-free fluorescence (AID 449749); assay type: functional
# T2 sequence (P9WMR3 whole entry): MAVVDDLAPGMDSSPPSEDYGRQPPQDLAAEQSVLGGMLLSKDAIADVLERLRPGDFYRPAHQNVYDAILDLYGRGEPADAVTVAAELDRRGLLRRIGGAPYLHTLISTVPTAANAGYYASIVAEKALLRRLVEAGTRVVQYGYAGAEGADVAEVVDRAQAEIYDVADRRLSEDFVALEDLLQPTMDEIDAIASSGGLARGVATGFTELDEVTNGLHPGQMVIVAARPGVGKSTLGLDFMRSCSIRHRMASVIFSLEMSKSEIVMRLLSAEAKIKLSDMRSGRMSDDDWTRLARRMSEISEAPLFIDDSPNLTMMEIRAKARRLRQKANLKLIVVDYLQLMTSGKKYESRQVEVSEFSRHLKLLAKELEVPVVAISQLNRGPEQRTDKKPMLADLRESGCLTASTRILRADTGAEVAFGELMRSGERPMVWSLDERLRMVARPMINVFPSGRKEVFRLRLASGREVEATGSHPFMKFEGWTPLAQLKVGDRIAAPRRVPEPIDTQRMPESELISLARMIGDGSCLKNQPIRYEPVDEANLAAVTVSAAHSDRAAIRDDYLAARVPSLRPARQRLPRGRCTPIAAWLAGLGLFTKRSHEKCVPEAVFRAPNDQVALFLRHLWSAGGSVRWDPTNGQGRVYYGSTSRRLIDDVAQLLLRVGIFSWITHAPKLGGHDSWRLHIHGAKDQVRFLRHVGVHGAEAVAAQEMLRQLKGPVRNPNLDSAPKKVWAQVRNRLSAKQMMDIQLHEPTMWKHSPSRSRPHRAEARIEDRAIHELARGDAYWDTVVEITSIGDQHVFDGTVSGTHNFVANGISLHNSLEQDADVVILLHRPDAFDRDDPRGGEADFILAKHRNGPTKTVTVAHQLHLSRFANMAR
# [8] = target: T3, RNA-binding protein pos-1 (Caenorhabditis elegans, UniProt G5EF15); test: disruptors of C. elegans POS-1 RNA interaction – biochemical, fluorescence polarization, dose response (AID 1964);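 note: purified POS-1 fused to maltose binding protein made in E. coli; potency of compounds blocking POS-1 binding to fluorescent RNA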
# T3 sequence (G5EF15 whole entry): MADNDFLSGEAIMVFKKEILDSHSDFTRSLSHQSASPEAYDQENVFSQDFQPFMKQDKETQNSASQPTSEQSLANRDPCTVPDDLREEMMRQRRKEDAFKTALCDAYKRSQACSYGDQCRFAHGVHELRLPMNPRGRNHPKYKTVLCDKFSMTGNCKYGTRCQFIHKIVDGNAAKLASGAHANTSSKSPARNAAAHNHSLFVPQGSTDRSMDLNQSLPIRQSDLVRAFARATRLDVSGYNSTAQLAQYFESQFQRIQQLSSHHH
# [9] = target: Histone-lysine N-methyltransferase NSD2 (Homo sapiens, UniProt O96028); assay type: biochemical
# [10] = target: T4, Zinc finger protein mex-5 (Caenorhabditis elegans, UniProt Q9XUB2); test: potency of MEX-5 RNA-binding blockers – biochemical, C. elegans, fluorescence polarization, dose response (AID 1960)
# T4 sequence (Q9XUB2 whole entry): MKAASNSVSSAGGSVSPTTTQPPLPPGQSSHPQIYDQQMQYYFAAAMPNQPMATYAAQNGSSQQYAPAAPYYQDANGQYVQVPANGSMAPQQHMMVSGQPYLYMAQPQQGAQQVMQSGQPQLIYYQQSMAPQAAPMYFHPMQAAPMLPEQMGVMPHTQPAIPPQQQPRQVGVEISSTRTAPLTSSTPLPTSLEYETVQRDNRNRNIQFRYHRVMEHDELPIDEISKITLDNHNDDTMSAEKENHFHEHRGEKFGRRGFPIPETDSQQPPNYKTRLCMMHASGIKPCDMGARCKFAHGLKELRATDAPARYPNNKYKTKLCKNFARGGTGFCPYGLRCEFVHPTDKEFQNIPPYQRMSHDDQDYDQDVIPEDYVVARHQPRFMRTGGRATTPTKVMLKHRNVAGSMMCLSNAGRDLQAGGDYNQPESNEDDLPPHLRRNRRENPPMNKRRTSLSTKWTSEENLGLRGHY
# Sequence of Histone-lysine N-methyltransferase NSD2 (O96028 whole entry): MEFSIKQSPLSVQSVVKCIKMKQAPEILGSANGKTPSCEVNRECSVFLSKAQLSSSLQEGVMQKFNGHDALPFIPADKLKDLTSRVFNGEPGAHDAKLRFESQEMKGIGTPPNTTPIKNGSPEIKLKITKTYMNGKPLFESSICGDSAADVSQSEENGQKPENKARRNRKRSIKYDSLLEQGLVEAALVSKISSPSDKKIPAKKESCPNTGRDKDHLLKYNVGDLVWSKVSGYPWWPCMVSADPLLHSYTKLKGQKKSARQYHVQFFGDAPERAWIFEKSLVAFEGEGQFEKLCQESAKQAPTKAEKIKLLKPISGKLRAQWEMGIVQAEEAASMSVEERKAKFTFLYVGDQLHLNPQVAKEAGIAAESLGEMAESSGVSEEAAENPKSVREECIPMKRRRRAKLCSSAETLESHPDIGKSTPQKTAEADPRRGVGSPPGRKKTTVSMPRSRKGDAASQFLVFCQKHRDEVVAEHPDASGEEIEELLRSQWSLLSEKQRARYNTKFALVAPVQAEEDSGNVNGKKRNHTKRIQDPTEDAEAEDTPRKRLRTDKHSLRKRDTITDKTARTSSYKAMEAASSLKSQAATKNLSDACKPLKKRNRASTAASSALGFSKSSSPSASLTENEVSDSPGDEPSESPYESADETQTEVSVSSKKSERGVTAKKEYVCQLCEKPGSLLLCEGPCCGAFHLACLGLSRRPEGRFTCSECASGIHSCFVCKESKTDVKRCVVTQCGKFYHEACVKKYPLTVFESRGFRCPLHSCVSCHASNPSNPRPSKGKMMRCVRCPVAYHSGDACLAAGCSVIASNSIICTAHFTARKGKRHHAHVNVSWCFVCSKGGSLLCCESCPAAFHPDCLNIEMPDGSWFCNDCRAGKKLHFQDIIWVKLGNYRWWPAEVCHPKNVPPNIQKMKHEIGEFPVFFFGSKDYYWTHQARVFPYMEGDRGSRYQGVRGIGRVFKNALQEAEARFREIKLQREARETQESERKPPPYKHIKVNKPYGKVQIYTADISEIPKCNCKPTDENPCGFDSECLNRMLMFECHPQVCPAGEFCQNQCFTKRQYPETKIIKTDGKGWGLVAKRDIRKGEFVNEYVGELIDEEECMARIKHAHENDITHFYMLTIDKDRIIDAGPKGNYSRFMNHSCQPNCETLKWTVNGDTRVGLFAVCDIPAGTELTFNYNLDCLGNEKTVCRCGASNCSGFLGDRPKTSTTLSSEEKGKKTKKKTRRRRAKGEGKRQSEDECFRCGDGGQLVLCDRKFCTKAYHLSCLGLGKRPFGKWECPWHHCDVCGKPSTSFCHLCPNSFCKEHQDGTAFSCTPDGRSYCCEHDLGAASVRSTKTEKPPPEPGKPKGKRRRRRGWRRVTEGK
# Sequence of Tyrosyl-DNA phosphodiesterase 2 (O95551 whole entry): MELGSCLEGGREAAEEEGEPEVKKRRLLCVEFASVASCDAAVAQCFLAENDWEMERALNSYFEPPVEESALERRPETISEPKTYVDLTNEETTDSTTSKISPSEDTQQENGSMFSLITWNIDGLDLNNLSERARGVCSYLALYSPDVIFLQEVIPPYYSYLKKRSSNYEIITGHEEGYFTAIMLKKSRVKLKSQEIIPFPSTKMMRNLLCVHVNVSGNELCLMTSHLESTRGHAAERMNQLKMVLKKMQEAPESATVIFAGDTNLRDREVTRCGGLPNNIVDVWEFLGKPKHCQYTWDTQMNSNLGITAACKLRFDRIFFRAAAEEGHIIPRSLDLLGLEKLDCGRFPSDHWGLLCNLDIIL
SMILES,AC50 [1],AC50 [2],AC50 [3],AC50 [4],AC50 [5],IC50 [6],EC50 (Protein RecA),AC50 [7],EC50 [8],AC50 [9],EC50 [10]
COc1ccc(S(=O)(=O)Nc2ccc3c(c2)CC(=O)N([C@@H](C)CO)C[C@H](C)[C@@H](CN(C)Cc2ccc(Cl)c(Cl)c2)O3)cc1,14.3 µM (active),20.5 µM (active),12.4 µM (active),15.9 µM (active),15.7 µM (active),–,–,–,–,–,–
COc1ccc(/C=C2/C(=O)N(c3ccccc3)N=C2C)cc1Br,–,–,–,–,–,102 µM (inactive),2.3 µM (active),2.77 µM (active),–,–,–
CC1=NN(c2ccc(C(=O)O)c(N)c2)C(=O)C1,–,–,–,–,–,–,1.98 µM (active),3.01 µM (active),85.5 µM (active),> 20 µM (inactive),38.3 µM (active)
